Biological target: T1, recombinant human CETP (Homo sapiens, UniProt P11597)
T1 construct: made in house; host or cells: CHO cells
T1 sequence (P11597 18-493): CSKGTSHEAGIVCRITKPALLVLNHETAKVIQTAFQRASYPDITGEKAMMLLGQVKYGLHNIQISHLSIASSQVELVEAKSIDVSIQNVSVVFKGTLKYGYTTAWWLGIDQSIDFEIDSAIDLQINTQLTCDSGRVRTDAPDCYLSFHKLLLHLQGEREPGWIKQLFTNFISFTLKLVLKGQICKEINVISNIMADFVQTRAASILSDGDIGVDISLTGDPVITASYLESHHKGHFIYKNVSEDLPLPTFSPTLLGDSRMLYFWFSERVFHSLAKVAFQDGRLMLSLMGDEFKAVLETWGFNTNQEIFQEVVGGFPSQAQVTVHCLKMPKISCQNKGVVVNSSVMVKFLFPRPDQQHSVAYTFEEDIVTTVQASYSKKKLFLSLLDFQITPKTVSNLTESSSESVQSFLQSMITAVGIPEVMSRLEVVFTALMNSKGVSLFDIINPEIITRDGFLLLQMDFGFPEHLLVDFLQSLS
Test: CETP assay, CE transfer reaction (BODIPY-CE fluorescence, continuous)
Type: biochemical
Details: 3% human serum, 25° C., read-out: IC50 value as measured for the CE transfer reaction
Method: An in vitro continuous assay for determining IC50's to identify compounds that are CETP inhibitors was performed based on a modification of the method described by Epps et al. employing BODIPY®-CE as the cholesteryl ester lipid donor and BODIPY®-TG as the triglyceride lipid donor. See Epps et al. (1995) Method for measuring the activities of cholesteryl ester transfer protein (lipid transfer protein), Chem. Phys. Lipids. 77, 51-63.
Particles used in the assay were created from the following materials by probe sonication essentially as described by Epps et al. Synthetic cholesteryl ester (CE) donor HDL particles contained DOPC (Dioleoyl Phosphatidyl Choline), BODIPY®-CE (Molecular Probes C-3927), triolein (a triglyceride), dabcyl dicetylamide, (a non-diffusable quencher molecule to reduce background fluorescence) and apoHDL. Synthetic triglyceride (TG) donor HDL particles contained DOPC, BODIPY®-TG, and apoHDL. BODIPY®-TG was synthesized at room temperature from diolein and the BODIPY containing fatty acid analog 4,4-difluoro-5-(2-thienyl)-4-bora-3a,4a-diaza-s-indacene-3-dodecanoic acid (Molecular Probes) in methylene chloride in the presence of dicyclohexyl carbodimide. Dabcyl dicetylamide was made by heating dabcyl n-succinimide with dicetylamine in DMF at 95° C. overnight in the presence of diisopropylamine catalyst. Native lipoproteins from human blood were used as acceptor particles. Particles having a density less than 1.063 g/ml were collected by ultracentrifugation. These particles include VLDL, IDL, and LDL. Particle concentrations were expressed in terms of protein concentration as determined by BCA assay (Pierce, USA). Particles were stored at 4° C. until use.
Assays were performed in Dynex Microfluor 2 U-bottom black 96-well plates (Cat #7205). An assay cocktail containing CETP, 1×CETP buffer (50 mM Tris, pH 7.4, 100 mM NaCl, 1 mM EDTA), 3% human serum, and half the final concentration of acceptor particles was prepared, and 100 μL of the assay cocktail was added to each well of the plate. Test compounds in DMSO were added in a volume of […]. The plate was mixed on a plate shaker and then incubated at 25° C. for 1 hour. A second assay cocktail containing donor particles, the remaining acceptor particles and 1×CETP buffer was prepared. 47 μL of the second assay cocktail was added to the reaction wells to start the assay. Assays were performed in a final volume of 150 μL. CE transfer reactions were performed as follows: final concentrations of materials were: 2.5 ng/μL CE donor particles, 7.5 ng/μL acceptor particles (each expressed by protein content), 1×CETP buffer, 14-30 nM recombinant human CETP (expressed in CHO cells and partially purified), and up to 2% DMSO when testing compounds; reactions were followed in a fluorescence plate reader (Molecular Devices Spectramax GeminiXS) set for a 45 minute kinetic run at 25° C. which read the samples every 45 sec at Ex=480 nm, Em=511 nm, with a cutoff filter at 495 nm, photomultiplier tube setting of medium, calibration on, and 6 reads/well. TG transfer reactions were performed as described above with the exception that 2.5 ng/uL TG donor particles were used. TG transfer was measured at an excitation wavelength of 538 nm while reading emission at 568 nm every 45 sec for 45 min at 37° C. with a cutoff filter at 550 nm.
Data were evaluated by obtaining an initial rate, expressed in relative fluorescence units per second, for the pseudolinear portion of the curve, often 0-500 or 1000 sec. Comparison of the rates of samples with inhibitors to an uninhibited (DMSO only) positive control yielded a percent inhibition. A plot of percent inhibition vs. log of inhibitor concentration, fit to a Sigmoidal 4 parameter equation was used to calculate […].

SMILES	IC50
CC(C)c1cc(C#N)cc2nc(-c3ccc(C(=O)NC[C@H]4CC[C@H](CC(=O)Nc5cc(C(F)(F)F)ccn5)CC4)cc3)oc12 [Example 44, 4-(5-Cyano-7-isopropyl-1,3-benzoxazol-2-yl)-N-{[trans-4-(2-oxo-2-{[4-(trifluoromethyl)pyridin-2-yl]amino}ethyl)cyclohexyl]methyl}benzamide]	12 to 41 nM
CC(C)c1cc(C#N)cc2nc(-c3ccc(C(=O)NC[C@H]4CC[C@H](CCOC(C)(C(F)(F)F)C(F)(F)F)CC4)cc3)oc12 [Example 45, 4-(5-Cyano-7-isopropyl-1,3-benzoxazol-2-yl)-N-[(trans-4-{2-[2,2,2-trifluoro-1-methyl-1-(trifluoromethyl)ethoxy]ethyl}cyclohexyl)methyl]benzamide]	12 to 41 nM
CC(C)c1cc(C#N)cc2nc(-c3ccc(C(=O)NCC4CC=C(Cc5ccc(C(F)(F)F)cc5)CC4)cc3)oc12 (stereo not shown) [Example 47, 4-(5-Cyano-7-isopropyl-1,3-benzoxazol-2-yl)-N-({4-[4-(trifluoromethyl)benzyl]cyclohex-3-en-1-yl}methyl)benzamide]	12 to 41 nM
CC(C)c1cc(C#N)cc2nc(-c3ccc(C(=O)NCC4(c5ccccc5)CCCCC4)cc3)oc12 [Example 48]	12 to 41 nM
CC(C)c1cc(C#N)cc2nc(-c3ccc(C(=O)NC[C@H]4CC[C@H](c5ccc(C(F)(F)F)cc5)CC4)cc3)oc12 [Example 53]	12 to 41 nM
CC(C)c1cc(C#N)cc2nc(-c3ccc(C(=O)NC[C@H]4CC[C@@H](c5ccc(C(C)(C)C)cc5)CC4)cc3)oc12 [Example 64]	12 to 41 nM
CC(C)c1cc(C#N)cc2nc(-c3ccc(C(=O)NC[C@H]4CC[C@H](c5ccc(C(C)(C)C)cc5)CC4)cc3)oc12 [Example 65]	12 to 41 nM
Cc1ccc2c(c1)cc(C1=CCC(CNC(=O)c3ccc(-c4nc5cc(C#N)cc(C(C)C)c5o4)cc3)CC1)n2C(=O)OC(C)(C)C (stereo not shown) [Example 76]	12 to 41 nM
CC(C)c1cc(C#N)cc2nc(-c3ccc(C(=O)NC[C@H]4CC[C@H](c5cc6ccccc6n5C)CC4)cc3)oc12 [Example 81]	12 to 41 nM
CC(C)c1cc(C#N)cc2nc(-c3ccc(C(=O)NC[C@H]4CC[C@H](c5cc6ccccc6o5)CC4)cc3)oc12 [Example 82]	12 to 41 nM
